Test results from patent US9925202B2, “Treatment of lymphangioleiomyomatosis” (THE BRIGHAM AND WOMEN'S HOSPITAL, INC., priority 2013, dated 2018).

Legend:
[1] = tested on: LAM patient-derived 621-101 cells; experiment: Proliferation of 621-101 cells; format: cell-based, human
Protocol: (§1) Cell culture and reagents. ELT-3 cells (Eker rat uterine leiomyoma-derived) (22,23) and LAM patient-derived 621-101 cells were cultured in IIA complete medium. HeLa, U2OS and OVARC5 cells were cultured in DMEM supplemented with 10% FBS. 17-beta-estradiol (10 nM), rapamycin (20 nM, Biomols), NS398 (50 μM), aspirin (450 μM Sigma), and 15-epi-LXA4 (100 nM) were used as indicated.

[2] = tested on: A549 cells (Human lung adenocarcinoma); conditions: reference 18; cited from earlier work
[3] = tested on: LAM patient-derived TSC2-deficient 621-101 cells; experiment: COX, phospho-protein and secreted prostaglandin levels in 621-101 cells (immunoblot, enzyme immunoassay); format: cell-based, human; conditions: 24 hr; for COX-1 levels / COX-2 levels / phosphorylation of MAPK or S6: 50 μM NS398 or 450 μM aspirin, immunoblot
Protocol: as §1
(§2) Immunoblotting and antibodies. Cells were lysed in m-PER buffer (PIERCE). Antibodies were used: COX-1, COX-2, phospho-MAPK (T202/Y204), phospho-S6 (S235/236), Cleaved caspase 3, cleaved PARP (CELL SIGNALING), tuberin and c-Myc (SANTA CRUZ), smooth muscle actin (BIOGENEX), and beta-actin (SIGMA).
(§3) Quantification of prostaglandin levels. PGE2, 6-keto-PGF1α and creatinine were measured using enzyme immunoassay kits (Cayman Chemical). Levels of secreted prostaglandins were normalized to protein concentrations and expressed as pg/mg protein. Urinary levels of prostaglandins were normalized to creatinine levels and expressed as […].

TSC2-deficient cells = experiment: COX-2 activation and prostaglandin production in TSC2-deficient cells with Torin 1; format: cell-based; conditions: specifically to TSC2-deficient cells
[4] = tested on: xenograft tumors of TSC2-deficient ELT3-luciferase-expressing cells; experiment: Aspirin in xenograft tumor model of ELT3-luciferase-expressing cells; format: in vivo, mice
Protocol: Animal studies. All animal work was performed in accordance with protocols approved by the IACUC-BWH. Female intact CB17-SCID mice were used as described previously (8, 24, 25). Aspirin (100 mg/kg/day, in drinking water) treatment was initiated five weeks post-cell inoculation. Urine specimens were collected.
as §2, §3
Statistical analyses. Statistical analyses were performed using Student's t-test when comparing two groups for in vitro and in vivo studies. Two-Way ANOVO test was performed in xenograft tumor-aspirin studies. Mann Whitney tests were used for prostaglandin quantification in clinical data.
To determine whether inhibition of COX-1 and/or COX-2 impacts the growth of LAM patient-derived cells, 621-101 cells were treated with Sulindac (a COX-1 inhibitor), NS398 (a COX-2 inhibitor), or aspirin (an irreversible COX-1 and COX-2 inhibitor) for 24 hr. […] The inventors next assessed the possible benefit of aspirin in a xenograft tumor model of TSC2-deficient ELT3-luciferase-expressing cells. Aspirin treatment for two-three weeks decreased the intensity of bioluminescence (FIG. 3c), reduced the growth of xenograft tumors by 35% (FIG. 3d), and decreased the tumor size (FIG. 3e). Tumors also had reduced expression of COX-2 and c-Myc, and increased levels of cleaved-caspase-3 and cleaved-PARP (Data not shown).

[5] = tested on: tumors of TSC2-deficient LAM patient-derived cells; experiment: Metastatic tumor model of LAM derived cells; format: in vivo, mice; conditions: aspirin treatment
Protocol: Arrows indicate individual tumors.
Bioluminescent imaging was performed weekly. Tumor area was normalized to the baseline before drug administration.
FIGS. 3f and 3g show the urinary PGE2 that was quantified from mice treated with aspirin or vehicle for 7 and 30 days. *p<0.05.

LAM patients = experiment: Exhaled breath condensate and lung function in LAM patients on aspirin; format: in vivo, human
Protocol: To examine the functional effect of COX-2 in LAM lungs, 15-epi-lipoxin A4 (LXA4), a product of aspirin-acetylated COX-2, was measured in exhaled breath condensate (EBC) from three LAM subjects (data not shown). 15-epi-LXA4 was detected in EBC and the levels were increased with aspirin (data not shown).

[6] = aspirin 100 mg/kg/day in drinking water, two-three weeks
[7] = aspirin-treated mice, data not shown
[8] = LAM patients, aspirin treatment

In the case of `CCCCC[C@@H](O)/C=C/C=C\C=C\C=C\[C@@H](O)[C@@H](O)CCCC(=O)O` [15-epi-LXA4, 15-epi-lipoxin A4], the “proliferation of LAM patient-derived 621-101 cells” value ([1]; 15-epi-LXA4 100 nM, data not shown) is given as “suppressed” and the “proliferation of A549 cells” value [2] is given as “decreases”.
In the case of `CS(=O)(=O)Nc1ccc([N+](=O)[O-])cc1OC1CCCCC1` [NS398], the COX-1 levels [3] is reported as “reduced”, the COX-2 levels [3] is reported as “reduced” and the “phosphorylation of MAPK or S6” value [3] is reported as “without affecting”.
For `CCC(=O)N1CCN(c2ccc(-n3c(=O)ccc4cnc5ccc(-c6cnc7ccccc7c6)cc5c43)cc2C(F)(F)F)CC1` [Torin 1], the “COX-2 activation and prostaglandin production” value (TSC2-deficient cells) was “suppresses”.
For `CC(=O)Oc1ccccc1C(=O)O` [aspirin], the COX-1 levels [3] was “reduced”, the COX-2 levels [3] was “reduced” and the “phosphorylation of MAPK or S6” value [3] was “without affecting”. For the same compound, the PGE2 levels ([3]; aspirin 450 μM, conditioned media, ELISA) was “significantly decreased”, the “proliferation of 621-101 cells” value ([1]; aspirin 450 μM) was “reduced” and the intensity of bioluminescence [4, 6] was “decreased”. The “reduction of growth of xenograft tumors” value [4, 6] was 35%, the tumor size [4, 6] was “decreased” and the “urinary levels of PGE2 and 6-Keto-PGF1α” value ([4]; aspirin-treated mice bearing ELT3 xenograft tumors, data not shown) was “markedly reduced”. The “apoptosis in xenograft tumors” value ([4]; aspirin-treated mice compared to vehicle-treatment) was “higher levels”, the “expression of COX-2 and c-Myc in tumors” value [4, 7] was “reduced” and the “levels of cleaved-caspase-3 and cleaved-PARP in tumors” value [4, 7] was “increased”. For the same compound, the “growth of tumors of LAM derived cells” value [5] was “decreased”, the urinary prostaglandins [5] was “reduction” and the lung function (LAM patients; [8]) was “improved”. The “prostaglandin levels in exhaled breath condensate” value (LAM patients; [8]) was “reduced” and the “15-epi-LXA4 levels in exhaled breath condensate (EBC)” value (LAM patients; three LAM subjects, oral aspirin ingestion, data not shown) was “increased”.
